The test system of the data set is cat flea (Ctenocephalides felis). The experiment in a line: Ctenocephalides felis adulticide assay: dose response (LC50). The format is in vivo. The procedure, abridged: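 Groups of 15 adult cat fleas, 3–7 days post-emergence, were exposed for 24 h at 25° C and 75% humidity to glass flask bases coated with six serial doses in acetone and dried for 24 h. Mortality was scored at 8 and 24 h, and LC50 was the surface-treatment concentration killing 50%.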

The structures appear in SMILES notation.

Turning to `CC/C(=N\OCc1ccc(Cl)cc1)c1cc(Cl)ccc1NS(=O)(=O)C(F)(F)F` [Compound 11, N-{4-chloro-2-[1-(4-chlorobenzyloxyimino)propyl]phenyl}trifluoromethanesulfonamide], the “C. felis LC50” value is, setting by setting: (Laboratory 1 C data) 0.1 μg/cm^2; (Laboratory 2 D data) 0.01 μg/cm^2.

Consider `CC/C(=N\OCc1ccc(C(F)(F)F)cc1)c1cc(Cl)ccc1NS(=O)(=O)C(F)(F)F` [Compound 9], for which the “C. felis LC50” value by setting is: (Laboratory 1 C data) 0.1 μg/cm^2; (Laboratory 2 D data) 0.01 μg/cm^2.

For the origin of these results see patent US7312248B2, “Control of parasites in animals by the use of novel trifluoromethanesulfonanilide oxime ether derivatives” (Schering-Plough Animal Health Corporation, priority 2004, dated 2007).
